Data: the NIST ThermoML archive (doi:10.1021/je034208m)
Several values for one entry are separate records, joined by “and”; a condition that tells them apart may be missing. Equal entries are not always repeated. Numbers after ± are expanded uncertainties.

How the values were obtained:
[1] = 101.33 kPa, Liquid; for speed of sound: Sing-around technique in a fixed-path interferometer
[2] = xn = mol fraction of the nth substance listed; details: 101.33 kPa, Liquid, x2 = 0; for speed of sound: Sing-around technique in a fixed-path interferometer

Compound: CCCCCCCCCC [decane]
- mass density ([1]; 293.15 K): 729.89 ± 0.8 kg/m3
- viscosity ([1]; 293.15 K): 0.911 ± 0.016 mPa·s
- speed of sound ([1]; 293.15 K): 1254 ± 1 m/s
- mass density ([1]; 298.15 K): 726.12 ± 0.8 kg/m3
- viscosity ([1]; 298.15 K): 0.845 ± 0.015 mPa·s
- speed of sound ([1]; 298.15 K): 1235 ± 1 m/s
- mass density ([1]; 303.15 K): 722.33 ± 0.81 kg/m3
- viscosity ([1]; 303.15 K): 0.787 ± 0.014 mPa·s
- speed of sound ([1]; 303.15 K): 1215 ± 1 m/s

Compound: CCCCCCCCCC [decane] + CCCC(C)O
- speed of sound ([2]; 293.15 K): 1254 ± 1 m/s
- mass density ([2]; 293.15 K): 729.89 ± 0.8 kg/m3
- viscosity ([2]; 293.15 K): 0.911 ± 0.016 mPa·s
- speed of sound ([2]; 298.15 K): 1235 ± 1 m/s
- mass density ([2]; 298.15 K): 726.12 ± 0.8 kg/m3
- viscosity ([2]; 298.15 K): 0.845 ± 0.015 mPa·s
- speed of sound ([2]; 303.15 K): 1215 ± 1 m/s
- mass density ([2]; 303.15 K): 722.33 ± 0.81 kg/m3
- viscosity ([2]; 303.15 K): 0.787 ± 0.014 mPa·s

Compound: CCCCCCCCCCCC [dodecane]
- mass density ([1]; 293.15 K): 748.54 ± 0.77 kg/m3
- viscosity ([1]; 293.15 K): 1.454 ± 0.024 mPa·s
- speed of sound ([1]; 293.15 K): 1297 ± 1 m/s
- mass density ([1]; 298.15 K): 744.9 ± 0.77 kg/m3
- viscosity ([1]; 298.15 K): 1.327 ± 0.022 mPa·s
- speed of sound ([1]; 298.15 K): 1278 ± 1 m/s
- mass density ([1]; 303.15 K): 741.27 ± 0.78 kg/m3
- viscosity ([1]; 303.15 K): 1.219 ± 0.02 mPa·s
- speed of sound ([1]; 303.15 K): 1259 ± 1 m/s

Compound: CCCCCCCCCCCC [dodecane] + CCCC(C)O
- speed of sound ([2]; 293.15 K): 1297 ± 1 m/s
- mass density ([2]; 293.15 K): 748.54 ± 0.77 kg/m3
- viscosity ([2]; 293.15 K): 1.454 ± 0.024 mPa·s
- speed of sound ([2]; 298.15 K): 1278 ± 1 m/s
- mass density ([2]; 298.15 K): 744.9 ± 0.77 kg/m3
- viscosity ([2]; 298.15 K): 1.327 ± 0.022 mPa·s
- speed of sound ([2]; 303.15 K): 1259 ± 1 m/s
- mass density ([2]; 303.15 K): 741.27 ± 0.78 kg/m3
- viscosity ([2]; 303.15 K): 1.219 ± 0.02 mPa·s

Compound: CCCCCCCC [octane]
- mass density ([1]; 293.15 K): 702.57 ± 0.78 kg/m3
- viscosity ([1]; 293.15 K): 0.538 ± 0.01 mPa·s
- speed of sound ([1]; 293.15 K): 1193 ± 1 m/s
- mass density ([1]; 298.15 K): 698.54 ± 0.79 kg/m3
- viscosity ([1]; 298.15 K): 0.506 ± 0.009 mPa·s
- speed of sound ([1]; 298.15 K): 1173 ± 1 m/s
- mass density ([1]; 303.15 K): 694.49 ± 0.8 kg/m3
- viscosity ([1]; 303.15 K): 0.478 ± 0.009 mPa·s
- speed of sound ([1]; 303.15 K): 1152 ± 1 m/s

Compound: CCCCCCCC [octane] + CCCC(C)O
- speed of sound ([2]; 293.15 K): 1193 ± 1 m/s
- mass density ([2]; 293.15 K): 702.57 ± 0.78 kg/m3
- viscosity ([2]; 293.15 K): 0.538 ± 0.01 mPa·s
- speed of sound ([2]; 298.15 K): 1173 ± 1 m/s
- mass density ([2]; 298.15 K): 698.54 ± 0.79 kg/m3
- viscosity ([2]; 298.15 K): 0.506 ± 0.009 mPa·s
- speed of sound ([2]; 303.15 K): 1152 ± 1 m/s
- mass density ([2]; 303.15 K): 694.49 ± 0.8 kg/m3
- viscosity ([2]; 303.15 K): 0.478 ± 0.009 mPa·s

Compound: CCCC(C)O (stereo not drawn) [pentan-2-ol]
- mass density ([1]; 293.15 K): 809.04 ± 0.99 kg/m3
- viscosity ([1]; 293.15 K): 4.001 ± 0.075 mPa·s
- speed of sound ([1]; 293.15 K): 1250 ± 2 m/s
- mass density ([1]; 298.15 K): 805.01 ± 0.99 kg/m3 and 805 ± 0.99 kg/m3
- viscosity ([1]; 298.15 K): 3.273 ± 0.063 mPa·s
- speed of sound ([1]; 298.15 K): 1232 ± 2 m/s
- mass density ([1]; 303.15 K): 800.9 ± 0.99 kg/m3
- viscosity ([1]; 303.15 K): 2.708 ± 0.053 mPa·s
- speed of sound ([1]; 303.15 K): 1214 ± 2 m/s
